Assay [1] deals with TNFα production in LPS-stimulated human monocytes. Briefly: Cot Monocyte TNFα Cell Based Assay. As to conditions: Homo sapiens, Monocyte, read-out: EC50 TNF. A digest of the protocol: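 TR-FRET read-out of total secreted TNFα, normalized as % control (unstimulated = 0%, LPS-stimulated = 100%). Cells (5,000/well) were exposed to compound 1 h at 37 °C, then to 50 pg/ml LPS for a further 4 h.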

Assay [2] concerns the target T1, human Cot catalytic domain (30-397 amino acids) (Homo sapiens, UniProt P41279).
T1 construct: Purified recombinant human Cot catalytic domain (30-397 amino acids) was purchased from Cama Biosciences; purchased Cama Biosciences (so in the source)
Briefly: High Throughput Cot Biochemical Assay (KinEASE TR-FRET). The settings on record: read-out: IC50 HTRF. A digest of the protocol:
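TR-FRET readout: Eu-labeled phospho-specific antibody binds XL665-tagged STK3 peptide after phosphorylation by Cot (aa 30-397, 5 nM). Conditions: 400 μM ATP, 1 μM peptide, MOPS pH 7.0 buffer with MgOAc, DTT, BSA, NP-40, glycerol; 0.1% DMSO.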

Setting [3] is: TNFα in LPS-stimulated human monocytes.
[4] abbreviates: Cot KinEASE TR-FRET (HTRF) biochemical assay, 400 μM ATP.
[5] abbreviates: Cot KinEASE TR-FRET, 400 μM ATP.
[6] abbreviates: Cot biochemical HTRF (KinEASE TR-FRET) assay.
Setting [7] is: LPS-stimulated human monocytes, TNFα TR-FRET.

Structures are written as SMILES. Read-outs that look alike come from different tables or passages of the source.

T1 sequence (P41279 30-397): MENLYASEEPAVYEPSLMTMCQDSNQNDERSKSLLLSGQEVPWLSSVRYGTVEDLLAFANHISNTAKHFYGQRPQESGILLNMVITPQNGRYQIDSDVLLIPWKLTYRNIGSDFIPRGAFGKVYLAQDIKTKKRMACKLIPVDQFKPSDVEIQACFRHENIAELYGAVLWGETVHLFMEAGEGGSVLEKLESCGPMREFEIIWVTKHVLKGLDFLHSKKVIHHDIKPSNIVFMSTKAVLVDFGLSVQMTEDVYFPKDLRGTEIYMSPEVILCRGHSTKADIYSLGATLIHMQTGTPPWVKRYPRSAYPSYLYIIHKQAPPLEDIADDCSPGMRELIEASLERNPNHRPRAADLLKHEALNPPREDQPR

As usually defined, the EC50 is the concentration that produces a half-maximal response. The IC50 is the concentration at which inhibition is half-maximal. On to `CC(=O)c1cccc([C@H](Nc2cc(Cl)c3ncc(C#N)c(Nc4ccc(F)c(Cl)c4)c3c2)c2cn(C3CCN(C(C)(C)C)CC3)nn2)c1` [Compound 21], for which the EC50 in assay [1] (setting [3]) was found to be 0.234 µM. In addition, the IC50 in assay [2] (setting [4]) was 0.005 µM.

As for `[2H][C@](Nc1cc(Cl)c2ncc(C#N)c(NCC(C)(C)C)c2c1)(c1ccc(Cl)cc1)c1cn(C23CCN(CC2)CC3)nn1` [Example 1010, (S)-8-chloro-6-(((4-chlorophenyl)(1-(quinuclidin-4-yl)-1H-1,2,3-triazol-4-yl)methyl-d)amino)-4-(neopentylamino)quinoline-3-carbonitrile], in assay [1], the EC50 is 0.928 µM. Moreover, in assay [2] (setting [5]), the IC50 amounted to 0.069 µM.

`CC(C)(C)N1CCC(n2cc([C@@H](Nc3cc(Cl)c4ncc(C#N)c(Nc5cc(Cl)cc(Cl)c5)c4c3)c3ccc(Cl)cc3)nn2)CC1` [Example 756, (S)-6-(((1-(1-(tert-butyl)piperidin-4-yl)-1H-1,2,3-triazol-4-yl)(4-chlorophenyl)methyl)amino)-8-chloro-4-((3,5-dichlorophenyl)amino)quinoline-3-carbonitrile]: the EC50 in assay [1] (setting [3]) is 2.98 µM. For the same compound, the IC50 in assay [2] (setting [6]) came to 0.108 µM.

Consider `[2H][C@](Nc1cc(C#N)c2ncc(C#N)c(NCC(C)(C)C)c2c1)(c1ccc(F)cc1)c1cn(-c2cccnc2)nn1` [Example 994, (S)-6-(((4-fluorophenyl)(1-(pyridin-3-yl)-1H-1,2,3-triazol-4-yl)methyl-d)amino)-4-(neopentylamino) quinoline-3,8-dicarbonitrile], for which the EC50 in assay [1] (setting [7]) was found to be 0.103 µM. For the same compound, the IC50 in assay [2] (setting [5]) turned out to be 0.033 µM.

With `[2H][C@](Nc1cc(Cl)c2ncc(C#N)c(NCCC(C)C)c2c1)(c1ccc(F)cc1)c1cn(C2CC2)nn1` [Example 268, (S)-8-chloro-6-(((1-cyclopropyl-1H-1,2,3-triazol-4-yl)(4-fluorophenyl)methyl-d)amino)-4-(isopentylamino)quinoline-3-carbonitrile], the EC50 in assay [1] (setting [3]) is 2.89 µM. Besides, the half-maximal inhibitory concentration (IC50) in assay [2] (setting [4]) was 0.166 µM.

In the case of `[2H][C@](Nc1cc(Cl)c2ncc(C#N)c(NCC(C)(C)C)c2c1)(c1cn(C2[C@H]3CN(C4COC4)C[C@@H]23)nn1)c1ccccc1Cl` (stereo partly drawn) [Example 100, 8-chloro-6-(((2-chlorophenyl) (1-((1R,5S,6r)-3-(oxetan-3-yl)-3-azabicyclo[3.1.0]hexan-6-yl)-1H-1,2,3-triazol-4-yl)methyl-d)amino)-4-(neopentylamino) quinoline-3-carbonitrile], in assay [1] (setting [3]), the EC50 is 0.337 µM. The IC50 in assay [2] (setting [4]) came to 0.016 µM.

Consider `[2H][C@](Nc1cc(C#N)c2ncc(C#N)c(NCC(C)(C)C)c2c1)(c1cccc(C#N)c1)c1cn(C2CC2)nn1` [Example 240, (S)-6-(((3-cyanophenyl)(1-cyclopropyl-1H-1,2,3-triazol-4-yl)methyl-d)amino)-4-(neopentylamino)quinoline-3,8-dicarbonitrile], for which the EC50 in assay [1] (setting [3]) amounted to 0.071 µM. The IC50 in assay [2] (setting [4]) was 0.001 µM.

For the compound `CC(C)(C)N1CCC(n2cc([C@@H](Nc3cc(Cl)c4ncc(C#N)c(Nc5ccc(F)c(Cl)c5)c4c3)c3cccc(C(=O)N4CCCC4)c3)nn2)CC1` [Example 691, (S)-6-(((1-(1-(tert-butyl)piperidin-4-yl)-1H-1,2,3-triazol-4-yl)(3-(pyrrolidine-1-carbonyl)phenyl)methyl)amino)-8-chloro-4-((3-chloro-4-fluorophenyl)amino)quinoline-3-carbonitrile], the EC50 in assay [1] (setting [3]) turned out to be 0.09 µM. The IC50 in assay [2] (setting [6]) turned out to be 0.002 µM.

Consider `Cc1c(-c2cccnc2)cccc1[C@H](Nc1cc(Cl)c2ncc(C#N)c(NCC(C)(C)C)c2c1)c1cn(C2(C(F)(F)F)CC2)nn1` [Example 1096, (S)-8-chloro-6-(((2-methyl-3-(pyridin-3-yl)phenyl)(1-(1-(trifluoromethyl)cyclopropyl)-1H-1,2,3-triazol-4-yl)methyl)amino)-4-(neopentylamino)quinoline-3-carbonitrile], for which the half-maximal effective concentration (EC50) in assay [1] (setting [7]) came to 0.262 µM. In assay [2] (setting [5]), the IC50 was determined as 0.01 µM.

For the compound `N#Cc1cnc2c(Cl)cc(N[C@@H](c3ccccc3)c3cn(C4CNCC(F)(F)C4)nn3)cc2c1Nc1ccc(F)c(Cl)c1` (stereo partly drawn) [Example 748, 8-chloro-4-((3-chloro-4-fluorophenyl)amino)-6-(((1S)-(1-(5,5-difluoropiperidin-3-yl)-1H-1,2,3-triazol-4-yl)(phenyl)methyl)amino) quinoline-3-carbonitrile], in assay [1] (setting [3]), the EC50 was 0.61 µM. Moreover, in assay [2] (setting [6]), the IC50 came out at 0.06 µM.

Consider `CC(C)(O)c1cccc([C@H](Nc2cc(Cl)c3ncc(C#N)c(Nc4ccc(F)c(Cl)c4)c3c2)c2cn(C3CCN(C(C)(C)C)CC3)nn2)c1` [Example 727, (S)-6-(((1-(1-(tert-butyl)piperidin-4-yl)-1H-1,2,3-triazol-4-yl)(3-(2-hydroxypropan-2-yl)phenyl)methyl)amino)-8-chloro-4-((3-chloro-4-fluorophenyl)amino)quinoline-3-carbonitrile], for which the EC50 in assay [1] (setting [3]) was 0.178 µM. Besides, the IC50 in assay [2] (setting [6]) is 0.003 µM.

For `N#Cc1cnc2c(Cl)cc(N[C@@H](c3ccccc3)c3cn([C@@H]4CCN(C5COC5)C[C@H]4O)nn3)cc2c1Nc1cccc(Cl)c1` [Example 517, 8-chloro-4-((3-chlorophenyl)amino)-6-(((S)-(1-((3R,4R)-3-hydroxy-1-(oxetan-3-yl)piperidin-4-yl)-1H-1,2,3-triazol-4-yl)(phenyl)methyl)amino) quinoline-3-carbonitrile], the EC50 in assay [1] (setting [3]) was found to be 0.255 µM. The IC50 in assay [2] (setting [6]) was 0.01 µM.

As for `CCOc1ccc(Nc2c(C#N)cnc3c(Cl)cc(N[C@@H](c4ccc(Cl)cc4)c4c[nH]nn4)cc23)cc1Cl` [Example 649, (S)-8-chloro-4-((3-chloro-4-ethoxyphenyl)amino)-6-(((4-chlorophenyl)(1H-1,2,3-triazol-4-yl)methyl)amino)quinoline-3-carbonitrile], the EC50 in assay [1] (setting [3]) was 2.74 µM. Also, the IC50 in assay [2] (setting [6]) is 1.46 µM.

Take `CC[C@H](C)Nc1c(C#N)cnc2c(Cl)cc(N[C@@H](c3ccccc3)c3cn(C(C)C)nn3)cc12` [Example 586, 4-(((S)-sec-butyl)amino)-8-chloro-6-(((S)-(1-isopropyl-1H-1,2,3-triazol-4-yl)(phenyl)methyl)amino) quinoline-3-carbonitrile]: the EC50 in assay [1] (setting [3]) came out at 8.56 µM. Besides, the IC50 in assay [2] (setting [6]) was found to be 0.892 µM.

On to `[2H][C@](Nc1cc(Cl)c2ncc(C#N)c(NC(c3ccccc3)C(C)(C)C)c2c1)(c1ccc(F)cc1)c1cn(C2CC2)nn1` (stereo partly drawn) [Example 307, 8-chloro-6-(((S)-(1-cyclopropyl-1H-1,2,3-triazol-4-yl)(4-fluorophenyl)methyl-d)amino)-4-((2,2-dimethyl-1-phenylpropyl)amino)quinoline-3-carbonitrile], for which the EC50 in assay [1] (setting [3]) was determined as 0.95 µM. In addition, in assay [2] (setting [4]), the IC50 was 0.116 µM.

As to `CC(C)(C)N1CCC(n2cc([C@@H](Nc3cc(Cl)c4ncc(C#N)c(Nc5ccccc5)c4c3)c3ccc(Cl)cc3)nn2)CC1` [Example 777, (S)-6-(((1-(1-(tert-butyl)piperidin-4-yl)-1H-1,2,3-triazol-4-yl)(4-chlorophenyl)methyl)amino)-8-chloro-4-(phenylamino)quinoline-3-carbonitrile], the EC50 in assay [1] (setting [3]) was 6.97 µM. For the same compound, the IC50 in assay [2] (setting [6]) stood at 0.072 µM.

With `CC(=O)Nc1cccc([C@H](Nc2cc(Br)c3ncc(C#N)c(NCC(C)(C)C)c3c2)c2cn(C3CC3)nn2)c1` [Example 79, (S)-N-(3-(((8-bromo-3-cyano-4-(neopentylamino)quinolin-6-yl)amino) (1-cyclopropyl-1H-1,2,3-triazol-4-yl)methyl)phenyl)acetamide], in assay [1] (setting [3]), the EC50 was found to be 0.278 µM. The IC50 in assay [2] (setting [4]) worked out at 0.008 µM.

For the origin of these results see patent US10316017B2, “COT modulators and methods of use thereof” (Gilead Sciences, Inc., priority 2015, dated 2019).
